Measured values taken from patent EP3860599B1, “(+)-ALPHA-DIHYDROTETRABENAZINE DOSAGE REGIMEN FOR TREATING MOVEMENT DISORDERS” (Adeptio Pharmaceuticals Limited, priority 2018, dated 2020).
Read-outs that look alike come from different tables or passages of the source.

Columns and labels:
Type in all cases: in vivo
VMAT2 = molecular target: T1, VMAT2 (Homo sapiens, UniProt Q05940); experiment: % VMAT2 blocking by PET scan after oral dosing of human volunteers, Example 1A
T1 construct: from tissue
T1 sequence (Q05940 whole entry): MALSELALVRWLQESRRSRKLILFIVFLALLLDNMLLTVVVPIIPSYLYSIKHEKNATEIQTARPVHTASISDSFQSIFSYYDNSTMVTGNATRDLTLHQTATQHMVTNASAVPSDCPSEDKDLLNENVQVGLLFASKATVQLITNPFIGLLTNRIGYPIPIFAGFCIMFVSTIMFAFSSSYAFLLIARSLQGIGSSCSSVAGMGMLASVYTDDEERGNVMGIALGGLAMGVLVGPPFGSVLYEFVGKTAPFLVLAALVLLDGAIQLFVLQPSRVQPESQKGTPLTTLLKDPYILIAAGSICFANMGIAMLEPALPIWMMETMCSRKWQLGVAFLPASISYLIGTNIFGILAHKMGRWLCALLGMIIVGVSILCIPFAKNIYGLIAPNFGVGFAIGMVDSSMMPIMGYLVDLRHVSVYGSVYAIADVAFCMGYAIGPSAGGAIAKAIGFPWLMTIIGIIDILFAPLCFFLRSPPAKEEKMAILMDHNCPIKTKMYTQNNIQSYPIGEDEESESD
Text: Complete blocking of VMAT2 is considered undesirable as this can lead to unwanted side effects, such as Parkinsonism. […] The levels of VMAT2 blocking can be determined by competitive binding studies using Positron Emission Tomography (PET). By co-administering a radioactive ligand with the compound of interest at various concentrations, the proportion of binding sites occupied can be determined (see for example, Matthews et al., "Positron emission tomography molecular imaging for drug development", Br. J. Clin. Pharmacol., 73:2, 175-186).
Blood samples were taken at 30, 60, 120 and 180 minutes after drug administration. At 60 minutes after drug administration, PET scans were initiated and these were stopped at 120 minutes after drug administration.
The experiment was carried out at dosages of 7.5 mg, 15 mg and 22.5 mg.

[1] = Plasma concentrations up to 7 hours after oral dosing of human volunteers, Example 1B; conditions: 7.5 mg
Protocol: Volunteers 1 and 2 were the same as volunteers 1 and 2 in Example 1A described above. […] In addition, in all volunteers PET scans were initiated at 6 hours after drug administration and these were stopped at 7 hours after drug administration. […]

[2] = tested on: non-amphetamine induced rats; experiment: Open field locomotor activity test in rats without amphetamine induction (Example 2, Study 3); conditions: 2.5 mg/kg or 5 mg/kg
Protocol: All animal experiments were carried out according to the National Institute of Health (NIH) guidelines for the care and use of laboratory animals, and approved by the National Animal Experiment Board, Finland. Male CD (Charles River Laboratories, Germany) at weight range of 200-250 g (165-200 g upon arrival) were used for the experiments. Animals were housed at a standard temperature (22 ± 1°C) and in a light-controlled environment (lights on from 7 am to 8 pm) with ad libitum access to food and water.
Locomotor activity of the rats was tested in open field arena. The open field test was performed during the rat light cycle and under a normal lighting evenly distributed to the test chambers. The paths of the rats were recorded by activity monitor (Med. Associates Inc.).
Dosing the vehicle, vehicle-amphetamine, (+)-α-DHTBZ or risperidone was done prior to LMA test. The rats were placed in the centre of the arena, and the path was recorded for 60 minutes.
Animals were grouped as follows: • Group 1: 10 rats treated with Vehicle • Group 2: 10 rats treated with (+)-α-DHTBZ 2.5 mg/kg • Group 3: 10 rats treated with (+)-α-DHTBZ 5 mg/kg • Group 4: 10 rats treated with risperidone 1 mg/kg

[3] = po, Example 1B subject 1 (112 kg), 7.5 mg oral
[4] = po, Example 1B subject 2 (76 kg), 7.5 mg oral
[5] = po, Example 1B subject 3 (76 kg), 7.5 mg oral
[6] = po, Example 1B subject 4 (95 kg), 7.5 mg oral
[7] = po, Example 1B subject 5 (99 kg), 7.5 mg oral
[8] = po, Example 1B subject 6 (107 kg), 7.5 mg oral

Structure (SMILES): COc1cc2c(cc1OC)[C@H]1C[C@@H](O)[C@H](CC(C)C)CN1CC2 [(+)-α-dihydrotetrabenazine, (R,R,R)-3-isobutyl-9,10-dimethyloxy-1,3,4,5,7,11b-hexahydro-2H-pyrido[2,1-a]isoquinolin-2-ol]
- % VMAT2 blocking (VMAT2; even in heavier individuals, doses as low as 7.5 mg): at least 50%
- % VMAT2 blocking (VMAT2; subject 1 (112 kg), 7.5 mg oral, PET scan 60-120 minutes after administration): 54%
- % VMAT2 blocking (VMAT2; subject 1 (112 kg), 15 mg oral, PET scan 60-120 minutes after administration): 73%
- % VMAT2 blocking (VMAT2; subject 1 (112 kg), 22.5 mg oral, PET scan 60-120 minutes after administration): 75%
- % VMAT2 blocking (VMAT2; subject 2 (76 kg), 7.5 mg oral, PET scan 60-120 minutes after administration): 73%
- % VMAT2 blocking (VMAT2; subject 2 (76 kg), 15 mg oral, PET scan 60-120 minutes after administration): 83%
- % VMAT2 blocking (VMAT2; subject 2 (76 kg), 22.5 mg oral, PET scan 60-120 minutes after administration): 82%
- % VMAT2 blocking (VMAT2; subject 3 (129 kg), 7.5 mg oral, PET scan 60-120 minutes after administration): 62%
- % VMAT2 blocking (VMAT2; subject 3 (129 kg), 15 mg oral, PET scan 60-120 minutes after administration): 69%
- % VMAT2 blocking (VMAT2; subject 3 (129 kg), 22.5 mg oral, PET scan 60-120 minutes after administration): 74%
- % VMAT2 blocking (VMAT2; subject 4 (59 kg), 7.5 mg oral, PET scan 60-120 minutes after administration): 84%
- % VMAT2 blocking (VMAT2; subject 4 (59 kg), 15 mg oral, PET scan 60-120 minutes after administration): 89%
- % VMAT2 blocking (VMAT2; subject 5 (91 kg), 7.5 mg oral, PET scan 60-120 minutes after administration): 73%
- % VMAT2 blocking (VMAT2; subject 5 (91 kg), 15 mg oral, PET scan 60-120 minutes after administration): 79%
- % VMAT2 blocking (VMAT2; subject 5 (91 kg), 22.5 mg oral, PET scan 60-120 minutes after administration): 82%
- % VMAT2 blocking (VMAT2; subject 6 (68 kg), 7.5 mg oral, PET scan 60-120 minutes after administration): 60%
- % VMAT2 blocking (VMAT2; subject 6 (68 kg), 15 mg oral, PET scan 60-120 minutes after administration): 76%
- % VMAT2 blocking (VMAT2; subject 6 (68 kg), 22.5 mg oral, PET scan 60-120 minutes after administration): 62%
- concentration at 6 h ([1]; oral, after 6 hours following administration of 7.5mg, read-out: blood plasma concentrations): < 15 ng/mL
- concentration at 2 h [1, 3]: 8.7 ng/mL
- concentration at 4 h [1, 3]: 6.01 ng/mL
- concentration at 6 h ([1]; po, Example 1B subject 1 (112 kg), 7.5 mg oral, 6 h, read-out: plasma concentrations): 4.54 ng/mL
- concentration at 7 h [1, 3]: 3.65 ng/mL
- concentration at 2 h [1, 4]: 11.7 ng/mL
- concentration at 4 h [1, 4]: 17.5 ng/mL
- concentration at 6 h ([1]; po, Example 1B subject 2 (76 kg), 7.5 mg oral, 6 h, read-out: plasma concentrations): 13.4 ng/mL
- concentration at 7 h [1, 4]: 11.6 ng/mL
- concentration at 2 h [1, 5]: 12.8 ng/mL
- concentration at 4 h [1, 5]: 7.92 ng/mL
- concentration at 6 h ([1]; po, Example 1B subject 3 (76 kg), 7.5 mg oral, 6 h, read-out: plasma concentrations): 5.57 ng/mL
- concentration at 7 h [1, 5]: 4.84 ng/mL
- concentration at 1 h [1, 6]: 21.4 ng/mL
- concentration at 2 h [1, 6]: 13.9 ng/mL
- concentration at 3 h [1, 6]: 10.6 ng/mL
- concentration at 4 h [1, 6]: 7.81 ng/mL
- concentration at 5 h [1, 6]: 6.59 ng/mL
- concentration at 6 h ([1]; po, Example 1B subject 4 (95 kg), 7.5 mg oral, 6 h, read-out: plasma concentrations): 4.92 ng/mL
- concentration at 7 h [1, 6]: 4.91 ng/mL
- concentration at 1 h [1, 7]: 5.64 ng/mL
- concentration at 2 h [1, 7]: 7.59 ng/mL
- concentration at 3 h [1, 7]: 5.84 ng/mL
- concentration at 4 h [1, 7]: 4.58 ng/mL
- concentration at 5 h [1, 7]: 3.66 ng/mL
- concentration at 6 h ([1]; po, Example 1B subject 5 (99 kg), 7.5 mg oral, 6 h, read-out: plasma concentrations): 3.35 ng/mL
- concentration at 7 h [1, 7]: 2.47 ng/mL
- concentration at 1 h [1, 8]: 4.86 ng/mL
- concentration at 2 h [1, 8]: 6.3 ng/mL
- concentration at 3 h [1, 8]: 6.69 ng/mL
- concentration at 4 h [1, 8]: 5.61 ng/mL
- concentration at 5 h [1, 8]: 5.19 ng/mL
- concentration at 6 h ([1]; po, Example 1B subject 6 (107 kg), 7.5 mg oral, 6 h, read-out: plasma concentrations): 4.44 ng/mL
- concentration at 7 h [1, 8]: 3.36 ng/mL
- stereotypic behaviour versus rats treated with the vehicle [2]: comparable
- total movement versus rats treated with the vehicle [2]: comparable
